Results reported in patent EP0167553B1, “NEW THERAPEUTICAL APPLICATION OF AN INDANE DIONE DERIVATIVE AND PHARMACEUTICAL COMPOSITIONS INTENDED TO SAID UTILIZATION” (priority 1983, dated 1985).

Test system: Rat Wistar
Test: Hyperlipidaemia induced by Triton WR 1339 injection
Format: in vivo
Design: Triglycérides, score par rapport au Procétofène 250 mg/kg: scale not given here
Source text: L'hyperlipidémie par injection de Triton WR 1339 (marque de fabrique), réalisée chez le Rat Wistar, est antagonisée ou diminuée par l'administration d'agents hypolipémiants.
• - Rats Wistar mâles. • - Poids corporel: 150 -180 grammes. • - Animaux E.O.P.S. (Exempts d'Organisme Pathogène Spécifique). • - Alimentation UAR A04 • - Eau de boisson à volonté • - 6 animaux par lot de traitement et par cage MAKROLON SAFI (marque de fabrique) 60 X 40 cm, sur litière de copeaux de bois dépoussiérés • - Cages placées dans un module animalerie climatisé (19 à 21°C) à degré hygrométrique constant (40 à 60 p.100), dans lequel l'air est renouvelé 10 fois par heure, 12 heures d'éclairement par jour.
• . - 18 h: mise à jeun. • . Temps 0 - administration du Triton WR 1339® (400 mg/kg IP.). • . + 10 mn: administration du produit étudié. • - + 6 h: 1er prélèvement sanguin au sinus rétro-orbitaire. • . + 24 h: 2ème prélèvement sanguin au sinus rétro-orbitaire.
L'essai comporte 8 lots dont un lot témoin (animaux sains) et un lot témoin triton (Tableau I).

[1] = 125 mg/kg, 6 heures after Triton
[2] = 125 mg/kg, 24 heures after Triton
[3] = 250 mg/kg, 6 heures after Triton
[4] = 250 mg/kg, 24 heures after Triton
[5] = 500 mg/kg, 6 heures after Triton
[6] = 500 mg/kg, 24 heures after Triton
[7] = 750 mg/kg, 6 heures after Triton
[8] = 750 mg/kg, 24 heures after Triton

In the case of `COc1ccc(C(=O)CC2(O)C(=O)c3ccccc3C2=O)cc1OC` [Produit de l'invention, 2-[(3,4-dimethoxybenzoyl)methyl] 2-hydroxy 1,3-dioxo indane], the “Chol. Total, score par rapport au Procétofène 250 mg/kg” value (“Chol. Total” for short) [1] is reported as 2.44, the “Score Total par rapport au Procétofène 250 mg/kg” value [1] is reported as 2.75 and the “Triglycérides, score par rapport au Procétofène 250 mg/kg” value [1] is reported as 0.31. The “Chol. HDL/ LDL, score par rapport au Procétofène 250 mg/kg” value (shortened to “Chol. HDL/ LDL”) [2] was 1.40, the “Chol. Total” value [2] was 0.28 and the “Score Total par rapport au Procétofène 250 mg/kg” value [2] was 1.94. The “Triglycérides, score par rapport au Procétofène 250 mg/kg” value [2] was 0.26, the “Chol. HDL/ LDL” value [3] was 0.87 and the “Chol. Total” value [3] was 1.15. For the same molecule, the “Lipides Totaux, score par rapport au Procétofène 250 mg/kg” value (“Lipides Totaux” for short) [3] was 0.92, the “Score Total par rapport au Procétofène 250 mg/kg” value [3] was 3.74 and the “Triglycérides, score par rapport au Procétofène 250 mg/kg” value [3] was 0.80. The “Chol. HDL/ LDL” value [4] was 1.10, the “Chol. Total” value [4] was 1.13 and the “Lipides Total, score par rapport au Procétofène 250 mg/kg” value [4] was 1.56. The “Score Total par rapport au Procétofène 250 mg/kg” value [4] was 4.64, the “Triglycérides, score par rapport au Procétofène 250 mg/kg” value [4] was 0.85 and the “Chol. HDL/ LDL” value [5] was 2.00. The “Chol. Total” value [5] was 0.35, the “Lipides Totaux” value [5] was 1.00 and the “Score Total par rapport au Procétofène 250 mg/kg” value [5] was 4.95. For the same molecule, the “Triglycérides, score par rapport au Procétofène 250 mg/kg” value [5] was 1.60, the “Chol. HDL/ LDL” value [6] was 0.80 and the “Chol. Total” value [6] was 0.75. The “Lipides Total, score par rapport au Procétofène 250 mg/kg” value [6] was 1.62, the “Score Total par rapport au Procétofène 250 mg/kg” value [6] was 3.66 and the “Triglycérides, score par rapport au Procétofène 250 mg/kg” value [6] was 0.49. The “Chol. Total” value [7] was 0.78, the “Lipides Totaux” value [7] was 0.14 and the “Score Total par rapport au Procétofène 250 mg/kg” value [7] was 1.72. The “Triglycérides, score par rapport au Procétofène 250 mg/kg” value [7] was 0.80, the “Chol. HDL/ LDL” value [8] was 0.40 and the “Chol. Total” value [8] was 0.61. The “Score Total par rapport au Procétofène 250 mg/kg” value [8] was 1.73, the “Triglycérides, score par rapport au Procétofène 250 mg/kg” value [8] was 0.72 and the “hyperlipémie provoquée par le Triton WR 1339” value (dès la dose de 125 mg/kg par voie orale, Rat) was “antagonisée au diminuée”.
